Assay results reported in patent US10500194B2, “Covalent small molecule DCN1 inhibitors and therapeutic methods using the same” (THE REGENTS OF THE UNIVERSITY OF MICHIGAN, priority 2017, dated 2019).

Experiments:
DCN1 [1] = target: T1, DCN1 (Homo sapiens (Human), UniProt Q96GG9); test: Mass spectroscopy of DCN1 protein incubations; assay type: binding; conditions: for ablation of the parent peak in the mass spectrum / major new peak (protein-inhibitor adduct) / mass of new peak (DCN1 plus inhibitor, loss of morpholinyl group): DCN1 380 μM, 1.2 fold excess of inhibitor, 4° C. overnight, Q-TOF; for difference from DCN1 Apo-protein mass: FIG. 2; for formation of a covalent bond with DCN1 protein: FIG. 2, mass-spectroscopic analyses
T1 sequence (Q96GG9 58-259): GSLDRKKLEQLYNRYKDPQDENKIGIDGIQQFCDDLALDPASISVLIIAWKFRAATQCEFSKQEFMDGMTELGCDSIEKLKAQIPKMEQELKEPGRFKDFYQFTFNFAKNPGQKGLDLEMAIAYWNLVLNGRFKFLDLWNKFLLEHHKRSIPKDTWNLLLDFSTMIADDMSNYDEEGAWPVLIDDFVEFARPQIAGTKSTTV
Method: (§1) Human DCN1 (residues 58-259) were cloned into a pDEST17 plasmid containing an N-terminal His6 tag. DCN2 (residues 62-259), DCN3 (residues 86-304), DCN4 (residues 102-292) and DCN5 (residues 47-237) were cloned into an N-terminal His6-TEV expression vector. Pure proteins were derived from the same expression and purification protocols. Plasmids were transformed into Rosetta2 cells, the cells were grown in Terrific Broth at 37° C. to an O.D.600>1.0 and induced with 0.4 mM Isopropyl β-D-1-thiogalactopyranoside overnight at 20° C. The pelleted cells were resuspended in lysis buffer containing 25 mM Tris-HCl, pH 7.5, 200 mM NaCl and protease inhibitors, sonicated and centrifuged at 34,000×g for 45 minutes to remove debris. Cleared lysate was incubated with Ni-NTA resin (Qiagen) prewashed with lysis buffer, for 1 hr at 4° C. The matrix was loaded into a column then washed with 25 mM Tris-HCl, pH 7.5, 200 mM NaCl and 10 mM imidazole. Protein was eluted with 25 mM Tris-HCl, pH 7.5, 200 mM NaCl and 300 mM imidazole, concentrated and applied to a Superdex 75 (GE Healthcare) column pre-equilibrated with 25 mM Tris pH 7.5, 200 mM NaCl and 1 mM DTT. For DCN2-5, the N-terminal His6 tag was removed prior to gel filtration. Tag removal was achieved through incubation with TEV protease during overnight dialysis against 25 mM Tris pH 7.5, 200 mM NaCl and 1 mM DTT and a second Ni-NTA column. DCN2-5 proteins were stored at −80° C. in 1 mg/mL fractions containing 5% glycerol. The uncleaved DCN1 protein was stored at −80° C. without glycerol.
Recombinant DCN1 protein (380 μM) in 25 mM Tris 7.5, 200 mM NaCl, 1 mM DTT buffer was incubated with a 1.2 fold excess of selected DCN1 inhibitors at 4° C. for overnight. The reaction mixture was diluted with tenfold with water, and the protein was analyzed by Q-TOF mass spectroscopy. DCN1 untreated, or treated with previously described non-covalent inhibitors produced an isotope deconvoluted peak at 26.085.75 amus. Incubation under the described conditions with Examples 4, 7 and 9 led to 95-99% ablation of the parent peak in the mass spectrum, with a major (>90%) new peak appearing at 26588.96 amu (Dalton) for Example 4, 26604.34 amu for Example 7, and 26596.18 amu for Example 9. In each case this corresponds to addition of the inhibitor to the protein, coupled with the loss of the morpholinyl group, from the initial Michael adduct between the protein and the small molecule.

DCN1 [2] = target: T1, DCN1; test: Competitive FP binding assay; conditions: read-out: Binding affinity to DCN1 (IC50)
Method: The Fluorescence Polarization (FP) competitive binding assays were performed to accurately determine the binding affinities of our DCN1 inhibitors. A novel FAM labeled fluorescent probe compound (46) was designed and synthesized based on one of our potent small molecule DCN1 inhibitors. Equilibrium dissociation constants (Kd) values of 46 to both DCN1 and DCN2 proteins were determined from protein saturation experiments by monitoring the total FP values of mixtures composed with the fluorescent probe at a fixed concentration and proteins with increasing concentrations up to full saturation. Serial dilutions of proteins were mixed with 46 to a final volume of 200 μl in the assay buffer (100 mM phosphate buffer, pH=6.5, with 0.02% Tween-20 and 2% DMSO). Final probe concentration was 5 nM for both assays. Plates were incubated at room temperature for 30 minutes with gentle shaking to assure equilibrium. FP values in millipolarization units (mP) were measured using the Infinite M-1000 plate reader (Tecan U.S., Research Triangle Park, N.C.) in Microfluor 1 96-well, black, round-bottom plates (Thermo Scientific, Waltham, Mass.) at an excitation wavelength of 485 nm and an emission wavelength of 530 nm. Kd values of 46 were calculated by fitting the sigmoidal dose-dependent FP increases as a function of protein concentrations using Graphpad Prism 6.0 software (Graphpad Software, San Diego, Calif.).
as §1

Nrf2 protein = test: Effect of covalent DCN1 inhibitors on Nrf2 protein level in mouse liver; assay type: in vivo; conditions: single dose 25 mg/kg IP, C57BL/6 male mice, western blotting
Method: Liver tissues harvested from C57BL/6 male mice treated with Example 9 (DI-1548) at 25 mg/kg via intraperitoneal (IP) injection were lysed with RIAP buffer. The expression level of Nrf2 protein was examined by western blotting. GAPDH was used a loading control.
The effect of several representative covalent DCN1 inhibitors (Examples 9, 21 and 22) on the level of Nrf2 protein in mouse liver was examined. Mice were administered with a single dose of Example 9 (DI-1548), Example 21 (DI-1859) or Example 22 (DI-1860) at 25 mg/kg, or phosphate-buffered saline (PBS), all via intraperitoneal (IP) injection. Mice were sacrificed at different time points and liver tissues were harvested for western blotting analysis for Nrf2 protein level. The data are shown in FIGS. 5, 6 and 7, respectively.

[3] = test system: neddylation of cullin 3 and NRF2 protein in HepG2 cells; test: Western blotting of cullin neddylation and NRF2 in HepG2 cells; assay type: cell-based; conditions: 20 h, compared with non-covalent inhibitor B
Method: HepG2 cells were treated as indicated concentrations for 20 h, NRF2, Cullin 1, and Cullin 3 proteins were examined by western blotting. GAPDH was used as a loading control.
Treated cells were lysed by RIPA buffer supplemented with protease inhibitor. The expression level of indicated proteins was examined by western blotting analysis. GAPDH was used as a loading control. Antibodies were purchased: Cullin 1 (sc-11384), Cullin2 (sc-10781), CullinS (sc-13014) and Cullin7 (sc-134565) from Santa Cruz Biotech. (Santa Cruz, Calif.); Cullin 4A (PA5-14542), Cullin 4B (PA5-35239), Cullin9 (PA5-20277), DCN2 (DCUNID2, PA5-31607) and DCN3 (DCUNID3, PA5-44000) from ThermoFisher Scientific (Wayne, Mich.); Cullin 3 (2759), NRF2 (12721), HO-1 (70081), NQO1 (3187), Cyclin E (4129), Bim (2819), Keap1 (8047) and UBC12 (4913) from Cell Signaling Technology (Boston, Mass.); DCN1 (GWB-E3D700) from GenWay Biotech (San Diego, Calif.). Results are representative of three independent experiments.

[4] = test system: APAP-induced liver injury; test: Protection of mice from acetaminophen-induced liver injury (blood ALT activity); assay type: in vivo
Method: To induce acute liver injury, mice were administered a large dose (400 mg/kg) of APAP via intraperitoneal (I.P.) injection and were sacrificed 48 hr later. To examine the protective effect of DI-1859 (pretreatment), animals were I.P. injected with DI-1859 for three consecutive days (one day before APAP injection, three hours before APAP injection and a third dose on the next day after APAP injection). To examine the restorative effect of DI-1859 (post-treatment), mice were treated with DI-1859 three hours after APAP administration followed by two additional doses on the following two days. Two control groups of mice were treated with phosphate-buffered saline (PBS) or DI-1859, respectively. Blood sample collection was performed on each day.
The activity of alanine aminotransferase (ALT) in blood is a commonly used measurement clinically as a part of a diagnostic evaluation of liver injury, to determine liver health. Therefore, the blood ALT activity was measured using an ALT reagent set (Pointe Scientific Inc., Canton, Mich.). […] Furthermore, post-treatment of APAP with DI-1859 at 50 mg/kg reduces the APAP-induced elevated ALT level by approximately 50%.

Structure (SMILES)	ablation of the parent peak in the mass spectrum (DCN1 [1])	major new peak (protein-inhibitor adduct) (DCN1 [1])	mass of new peak (DCN1 plus inhibitor, loss of morpholinyl group) (DCN1 [1])	difference from DCN1 Apo-protein mass (DCN1 [1])	formation of a covalent bond with DCN1 protein (DCN1 [1])	IC50 (DCN1 [2])	level of Nrf2 protein in mouse liver tissue (Nrf2 protein)	further results
C=C(CN(C)C)C(=O)NC[C@@H](NC(=O)[C@H](Cc1nc2ccc(C(C)C)cc2s1)NC(=O)CC)C1CCCCC1 [Example 21, N—((S)-2-cyclohexyl-2-((S)-3-(6-isopropylbenzo[d]thiazol-2-yl)-2-propionamidopropanamido)ethyl)-2-((dimethylamino)methyl)acrylamide]						< 0.15 µM	effectively increases	reduction of APAP-induced elevated ALT level, post-treatment ([4]; APAP 400 mg/kg I.P., post-treatment at 50 mg/kg): approximately 50%; elevation of ALT activity by APAP, pretreatment ([4]; APAP 400 mg/kg I.P., pretreatment at 50 mg/kg): completely prevents; elevated ALT activity induced by APAP, pretreatment ([4]; APAP 400 mg/kg I.P., pretreatment, dose-dependent): effectively reduces; APAP-induced alanine aminotransferase (ALT) increase ([4]; pre- or post-treatment, APAP, FIG. 8): effectively blocks or reduces
C=C(CN(CC)CC)C(=O)NC[C@@H](NC(=O)[C@H](Cc1nc2ccc(C(C)C)cc2s1)NC(=O)CC)C1CCCCC1 [Example 22, N—((S)-2-cyclohexyl-2-((S)-3-(6-isopropylbenzo[d]thiazol-2-yl)-2-propionamidopropanamido)ethyl)-2-((diethylamino)methyl)acrylamide]						< 0.15 µM	effectively increases	
CCC(=O)N[C@@H](Cc1nc2ccc(C(C)C)cc2s1)C(=O)N[C@H](CNC(=O)CCl)C1CCCCC1 [Example 38, (S)—N—((S)-2-(2-chloroacetamido)-1-cyclohexylethyl)-3-(6-isopropylbenzo[d]thiazol-2-yl)-2-propionamidopropanamide]						< 0.15 µM		
CCC(=O)N[C@@H](Cc1nc2ccc(C(C)C)cc2s1)C(=O)N[C@H](CNC(=O)/C=C/CN1CCOCC1)C1CCCCC1 [Example 39, (E)-N—((S)-2-cyclohexyl-2-((S)-3-(6-isopropylbenzo[d]thiazol-2-yl)-2-propionamidopropanamido)ethyl)-4-morpholinobut-2-enamide]						< 0.15 µM		

More lines, main results first:

ablation of the parent peak in the mass spectrum (DCN1 [1])	major new peak (protein-inhibitor adduct) (DCN1 [1])	mass of new peak (DCN1 plus inhibitor, loss of morpholinyl group) (DCN1 [1])	difference from DCN1 Apo-protein mass (DCN1 [1])	formation of a covalent bond with DCN1 protein (DCN1 [1])	IC50 (DCN1 [2])	Structure (SMILES)	level of Nrf2 protein in mouse liver tissue (Nrf2 protein)	further results
95-99%	> 90%	26588.96 amu	503.21 Da	formation of a covalent bond	0.0416 µM	C=C(CN1CCOCC1)C(=O)NC[C@@H](NC(=O)[C@H](Cc1nc2ccc(Cl)cc2s1)NC(=O)CC)C1CCCCC1 [Example 4, N—((S)-2-((S)-3-(6-chlorobenzo[d]thiazol-2-yl)-2-propionamidopropanamido)-2-cyclohexylethyl)-2-(morpholinomethyl)acrylamide]		
95-99%	> 90%	26604.34 amu	518.59 Da	formation of a covalent bond	0.0374 µM	C=C(CN1CCOCC1)C(=O)NC[C@H](Cc1ccccc1)NC(=O)[C@H](Cc1nc2ccc(C(C)C)cc2s1)NC(=O)CC [Example 7, N—((S)-2-((S)-3-(6-prop-2-ylbenzo[d]thiazol-2-yl)-2-propionamidopropanamido)-3-phenylpropyl)-2-(morpholinomethyl)acrylamide]		
95-99%	> 90%	26596.18 amu	510.81 Da	formation of a covalent bond	0.0665 µM	C=C(CN1CCOCC1)C(=O)NC[C@@H](NC(=O)[C@H](Cc1nc2ccc(C(C)C)cc2s1)NC(=O)CC)C1CCCCC1 [Example 9, N—((S)-2-((S)-3-(6-prop-2-ypbenzo[d]thiazol-2-yl)-2-propionamidopropanamido)-2-cyclohexylethyl)-2-(morpholinomethyl)acrylamide]	effectively increases	increasing the level of NRF2 protein [3]: much stronger biological activity; inhibition of neddylation of cullin 3 [3]: much stronger biological activity
